From article PMC11995724, “Antibiotic target discovery by integrated phenotypic and activity-based profiling of electrophilic fragments” (Cell chemical biology, 2025)

Experiment: in vitro
Settings: human, hek293t cells

Row | Compound | viability at 48 h, 25 µM [%]
1 | CCc1oc2ccccc2c1C=C(C#N)C(=O)NC1CC1 [9-M12, 2-cyano-N-cyclopropyl-3-(2-ethyl-1-benzofuran-3-yl)prop-2-enamide] | 74.5
2 | CC(NC(=O)C(C#N)=Cc1ccc(-c2ccccc2)cc1)c1ccccc1 (centres unmarked) [8-J11, 3-{[1,1'-biphenyl]-4-yl}-2-cyano-N-(1-phenylethyl)prop-2-enamide] | 26.5
3 | C=CC(=O)Nc1cc(C(=O)CC)ccc1F [2-C22, N-(2-fluoro-5-propanoylphenyl)prop-2-enamide] | 84.8
4 | C=CC(=O)NC1(c2ccc(C(F)(F)F)cc2)CCCC1 [2-E04, N-{1-[4-(trifluoromethyl)phenyl]cyclopentyl}prop-2-enamide] | 82.6
5 | N#CC(=Cc1ccsc1)C(=O)NCc1ccc(Cl)cc1 [8-I15, N-[(4-chlorophenyl)methyl]-2-cyano-3-(thiophen-3-yl)prop-2-enamide] | 101
6 | C=CC(=O)N(C)Cc1cn(C)nc1C(C)C [3-F15, N-methyl-N-{[1-methyl-3-(propan-2-yl)-1H-pyrazol-4-yl]methyl}prop-2-enamide] | 80.7
7 | CSc1ccccc1CC(C)NC(=O)CCl (centres unmarked) [7-D14, 2-chloro-N-{1-[2-(methylsulfanyl)phenyl]propan-2-yl}acetamide] | 1.59
8 | C=CC(=O)N1CCC(C(=O)N2CCC(Cc3ncon3)CC2)CC1 [2-J06, 1-(4-{4-[(1,2,4-oxadiazol-3-yl)methyl]piperidine-1-carbonyl}piperidin-1-yl)prop-2-en-1-one] | 74.2
9 | CCc1ccc(OC(C)C(=O)N2CCN(C(=O)C(C)Cl)CC2)cc1 (centres unmarked) [6-H16, 1-[4-(2-chloropropanoyl)piperazin-1-yl]-2-(4-ethylphenoxy)propan-1-one] | 105
10 | CC(Cl)C(=O)NC1CCCCC1n1cccn1 (centres unmarked) [7-F17, 2-chloro-N-[2-(1H-pyrazol-1-yl)cyclohexyl]propanamide] | 97.9
11 | CC(Cl)C(=O)NCCc1cn(C)nn1 (centres unmarked) [7-A14, 2-chloro-N-[2-(1-methyl-1H-1,2,3-triazol-4-yl)ethyl]propanamide] | 82.7
12 | C=CC(=O)N1CCC(C(=O)Nc2ccn(CC(=O)N(C)C)n2)CC1 [2-H12, N-{1-[(dimethylcarbamoyl)methyl]-1H-pyrazol-3-yl}-1-(prop-2-enoyl)piperidine-4-carboxamide] | 71
13 | C=CC(=O)N1CCc2cc(C(N)=O)ccc21 [1-P03, 1-(prop-2-enoyl)-2,3-dihydro-1H-indole-5-carboxamide] | 172
14 | CC(C)N(c1ccccc1)c1ccc(NC(=O)CCl)cc1 [6-I17, 2-chloro-N-{4-[phenyl(propan-2-yl)amino]phenyl}acetamide] | 0.67
15 | CC(Cl)C(=O)NCc1ccc(Cl)cc1 (centres unmarked) [6-I04, 2-chloro-N-[(4-chlorophenyl)methyl]propanamide] | 107
16 | O=C(CCl)N1CCN(S(=O)(=O)c2cccc([N+](=O)[O-])c2)CC1 [4-C19, 2-chloro-1-[4-(3-nitrobenzenesulfonyl)piperazin-1-yl]ethan-1-one] | 1.45
17 | C=CC(=O)NCCC(=O)N1CCCN(c2cccnn2)CC1 [2-P16, N-{3-oxo-3-[4-(pyridazin-3-yl)-1,4-diazepan-1-yl]propyl}prop-2-enamide] | 77.8
18 | O=C(O)c1csc(C(=O)CCl)c1 [10-E22, 5-(2-chloroacetyl)thiophene-3-carboxylic acid] | 91.8
19 | O=C(CCl)NC1CCCS(=O)(=O)c2ccccc21 (centres unmarked) [6-O19, 2-chloro-N-(1,1-dioxo-2,3,4,5-tetrahydro-1lambda6-benzothiepin-5-yl)acetamide] | 5.88
20 | CSc1ccc(C=C(C#N)C(=O)Nc2ccc3c(c2)OCCO3)cc1 [9-L05, 2-cyano-N-(2,3-dihydro-1,4-benzodioxin-6-yl)-3-[4-(methylsulfanyl)phenyl]prop-2-enamide] | 114
